This passage reports Enhancement results from ChEMBL document CHEMBL1145977, “Synthesis and dopamine receptor modulating activity of 3-substituted gamma-lactam peptidomimetics of L-prolyl-L-leucyl-glycinamide” (J Med Chem, 2003).

Holding throughout (format): functional
For assay [1], the target named is T1, Dopamine receptor (Rattus norvegicus) (UniProt P25115+P19020+P30729+P18901+P61169). The experiment in a line: Dopamine receptor modulating activity of compound was evaluated by rat nigrostriatal 6-hydroxydopamine lesion rotation model at dose of 1 ug/kg given intraperitoneally.
The species named for the next assay is Bos taurus. Put plainly: Percent enhancement of [3H]NPE binding to bovine striatal membranes at 100 nM concentration. The note with it: Striatum, Membrane.
Assay [2] addresses T1, Dopamine receptor (Rattus norvegicus). Put plainly: Dopamine receptor modulating activity of compound was evaluated by rat nigrostriatal 6-hydroxydopamine lesion rotation model at dose of 0.1 ug/kg given intraperitoneally.

`NC(=O)[C@H]1CS[C@@H]2C[C@@](Cc3ccccc3)(NC(=O)[C@@H]3CCCN3)C(=O)N12`: the Enhancement in assay [1] was found to be 30%.

On to `CC(C)C[C@@]1(NC(=O)[C@@H]2CCCN2)CCN(CC(N)=O)C1=O`, for which the Enhancement in the assay listed under Bos taurus is 59%.

On to `NC(=O)[C@H]1CS[C@@H]2C[C@@H](NC(=O)[C@@H]3CCCN3)C(=O)N12`, for which, in assay [2], the Enhancement is 23%.

Regarding `NC(=O)CN1CC[C@@](Cc2ccccc2)(NC(=O)[C@@H]2CCCN2)C1=O`, in the assay listed under Bos taurus, the Enhancement is 116%.

In the case of `NC(=O)CN1CC[C@@H](NC(=O)[C@@H]2CCCN2)C1=O`, the Enhancement in the assay filed under Bos taurus was 36%.

On to `CC(C)C[C@@]1(NC(=O)[C@@H]2CCCN2)C[C@H]2SC[C@H](C(N)=O)N2C1=O`, for which the Enhancement in assay [1] came to 44%.

Turning to `CCCC[C@@]1(NC(=O)[C@@H]2CCCN2)C[C@H]2SC[C@H](C(N)=O)N2C1=O`, in assay [2], the Enhancement is 56%.

For the molecule `CCCC[C@@]1(NC(=O)[C@@H]2CCCN2)CCN(CC(N)=O)C1=O`, the Enhancement in the assay filed under Bos taurus was determined as 89%.
